Assay results published in patent US20140350064A1, “PHARMACEUTICAL COMPOSITION COMPRISING AN AMPK ACTIVATOR AND A SEROTONERGIC AGENT AND METHODS OF USE THEREOF” (priority 2013, published 2014).

Legend:
Format in all cases: in vivo, Sprague-Dawley rat
[1] = Overnight food intake in Sprague-Dawley rats during dosing; settings: daily overnight food intake, 65 days of treatment, n=10
Experimental: (§1) Male Sprague-Dawley rats were used with average body weight 223 g. The rats were fed with standard chow.
(§2) Before grouping, all animals were weighed at fasting state for 5 consecutive days. The first dose of the drug as indicated in Table 1 was administered on the next day after grouping; the dose was administered by gavage (t.i.d.) in a solution dose of […] body weight, and continued for a total of 65 days. Initially, each rat was treated accordingly with 0.25 mL drug solution; the dosage was then adjusted according to the body weight change of each rat, by increasing the dose by 0.05 mL for each 50 g body weight increment.
(§3) Groups were fed overnight with 30 g chowrat after drug administration and food deprived during daytime. Overnight food intake was measured every morning, while fasting body weight was measured every Tuesday and Friday night.
(§4) Statistical analysis was performed with SPSS software (IBM). One-way ANOVA was performed.

[2] = Weight gain inhibition in Sprague-Dawley rats, 65 days' treatment
Experimental: as §1, §2, §3, §4

[3] = Fat mass of Sprague-Dawley rats after 65 days' treatment; settings: for Fat Mass: average total fat mass after 65 days, n=10
Experimental: as §1, §2, §4

[4] = after 65 consecutive days of treatment

**Q.** Which “Average Food Intake During Dosing” value [1] does the source give for `CC(C)CC(N(C)C)C1(c2ccc(Cl)cc2)CCC1` (centres unmarked) [SIB, sibutramine] here?
**A.** 29.4 ± 0.9 g

**Q.** What about the “Average Food Intake During Dosing” value ([1]; listed as sibutramine) of the same molecule?
**A.** 29.4 g

**Q.** And the “Effect on body weight gain” value [2, 4]?
**A.** decreased body weight gain

**Q.** What about the Post-Dose body weight ([2]; male Sprague-Dawley rats, gavage t.i.d., 65 days, fasting body weight, n=10) of the same molecule?
**A.** 493.8 ± 13.0 g

**Q.** And the “ΔBW (increase of body weight)” value ([2]; male Sprague-Dawley rats, gavage t.i.d., 65 days, n=10)?
**A.** 270.7 ± 11.6 g

**Q.** What about the “ΔBW (increase of body weight)” value ([2]; male Sprague-Dawley rats, gavage t.i.d., 65 days, n=10, listed as sibutramine) of the same molecule?
**A.** 270.7 g

**Q.** What about the “Relative Body Weight” value ([2]; vs. GS control group, 65 days, n=10) of the same molecule?
**A.** -22.0 g

**Q.** And the “Weight Loss Ratio” value ([2]; vs. GS control group, 65 days, n=10, listed as sibutramine)?
**A.** 4.3%

**Q.** And the “Effect on fat mass” value [3, 4]?
**A.** reduced fat mass

**Q.** And the “Fat Mass” value [3]?
**A.** 25.5 ± 6.3 g

**Q.** And the “Fat Mass” value ([3]; listed as sibutramine)?
**A.** 25.5 g
